Source: patent publication US12281149B2, “Modulators of G-protein coupled receptors” (priority 2021, dated 2025)
*1 amine or outer side, *2 acyl side, *3 side chain or, on linkers, in order; H or OH if unused. Where a SMILES comes first, the peptide text is derived from it. Side-chain parts run from the residue outwards. [ ]: non-standard residue; d: D form. The star is where a group is joined. Isobutyryl(2-(3-CN-5-F-Ph)) = CC(C)(C(=O)*)c1cc(F)cc(C#N)c1; C20 diacid = O=C(O)CCCCCCCCCCCCCCCCCCC(=O)*; γGlu = O=C(O)[C@H](CCC(=O)[*:2])N[*:1]; X35 = N#Cc1cc(F)cc(C2(C(=O)*)CCCC2)c1; X9 = CC(C)(C(=O)*)c1cc(F)cc(C(=O)O)c1; X59 = COc1ccc(C2(C(=O)*)CCCC2)cc1; AEEA = NCCOCCOCC(=O)O; Aib = CC(C)(N)C(=O)O; βAla = NCCC(=O)O

Columns and labels:
Assay type in all cases: cell-based
GLP-1 receptor [1] = biological target: T1, GLP-1 receptor (Homo sapiens, UniProt P43220); test: PathHunter β-arrestin assay, GLP-1 receptor; parameters: host or cells: PathHunter CHO-K1 GLP1R β-Arrestin Cell Line; conditions: β-arrestin-2 recruitment, PathHunter CHO-K1 GLP1R β-Arrestin Cell Line, 90 min at 37° C.; normalized to GLP-1; read-out: GLP-1R β Arrestin EC50
GIP receptor [2] = biological target: T2, GIP receptor (Homo sapiens, UniProt P48546); test: PathHunter β-arrestin assay, GIP receptor; parameters: host or cells: PathHunter CHO-K1 GIPR β-Arrestin Cell Line; conditions: β-arrestin-2 recruitment, PathHunter CHO-K1 GIPR β-Arrestin Cell Line, 90 min at 37° C.; normalized to GIP; read-out: GIPR β Arrestin EC50
T2 sequence (P48546 22-466): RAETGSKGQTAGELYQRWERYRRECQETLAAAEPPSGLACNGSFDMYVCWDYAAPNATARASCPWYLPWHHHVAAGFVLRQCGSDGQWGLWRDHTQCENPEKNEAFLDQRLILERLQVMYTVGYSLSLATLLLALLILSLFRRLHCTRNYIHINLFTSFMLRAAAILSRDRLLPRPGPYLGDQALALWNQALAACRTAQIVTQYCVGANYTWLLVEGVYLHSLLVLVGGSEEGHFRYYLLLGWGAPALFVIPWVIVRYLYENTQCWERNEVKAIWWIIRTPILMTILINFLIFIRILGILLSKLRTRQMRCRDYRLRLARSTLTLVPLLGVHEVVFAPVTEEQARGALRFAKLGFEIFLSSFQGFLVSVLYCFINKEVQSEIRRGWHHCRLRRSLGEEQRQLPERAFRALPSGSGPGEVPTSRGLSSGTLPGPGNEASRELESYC

GLP-1 receptor [3] = biological target: T1, GLP-1 receptor; test: HitHunter cAMP assay, GLP-1 receptor; conditions: for EC50: CHO cells stably expressing human GLP-1 receptor, cAMP accumulation, 30 min, read-out: EC50 GLP-1R; for Emax: CHO cells, cAMP, normalized to maximum signal from GLP-1 (high) and DMSO (low), read-out: Emax GLP-1R
GIP receptor [4] = biological target: T2, GIP receptor; test: HitHunter cAMP assay, GIP receptor; conditions: for EC50: CHO cells stably expressing GIP receptor, cAMP accumulation, 30 min, read-out: EC50 GIP-1R; for Emax: CHO cells, cAMP, normalized to maximum signal from GIP (high) and DMSO (low), read-out: Emax GIP-1R

T1 sequence (P43220 24-463): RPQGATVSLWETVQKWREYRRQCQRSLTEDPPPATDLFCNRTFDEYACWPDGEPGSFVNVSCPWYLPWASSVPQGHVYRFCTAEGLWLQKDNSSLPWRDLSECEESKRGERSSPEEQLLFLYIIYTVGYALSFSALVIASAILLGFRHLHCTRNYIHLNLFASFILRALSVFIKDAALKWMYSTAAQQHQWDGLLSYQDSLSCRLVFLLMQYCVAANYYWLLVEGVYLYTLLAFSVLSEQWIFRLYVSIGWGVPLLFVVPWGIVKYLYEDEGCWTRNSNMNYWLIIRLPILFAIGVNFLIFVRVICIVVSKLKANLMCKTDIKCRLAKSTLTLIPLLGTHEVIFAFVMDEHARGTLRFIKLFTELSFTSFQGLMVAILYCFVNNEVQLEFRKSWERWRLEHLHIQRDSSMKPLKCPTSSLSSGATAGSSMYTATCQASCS

SMILES: CC[C@H](C)[C@H](NC(=O)[C@H](CC(C)C)NC(=O)[C@H](Cc1c[nH]c2ccccc12)NC(=O)[C@H](CCC(N)=O)NC(=O)[C@@H](NC(=O)[C@H](Cc1ccccc1)NC(=O)[C@H](C)NC(=O)[C@H](CCCCNC(=O)COCCOCCNC(=O)COCCOCCNC(=O)CC[C@H](NC(=O)CCCCCCCCCCCCCCCCCCC(=O)O)C(=O)O)NC(=O)[C@H](CCC(N)=O)NC(=O)[C@H](C)NC(=O)[C@@H](NC(=O)[C@H](CCCCN)NC(=O)[C@H](CC(=O)O)NC(=O)[C@H](CC(C)C)NC(=O)C(C)(C)NC(=O)[C@@H](NC(=O)[C@H](CO)NC(=O)[C@H](Cc1ccc(O)cc1)NC(=O)[C@H](CC(=O)O)NC(=O)[C@H](CO)NC(=O)[C@@H](NC(=O)[C@H](Cc1ccccc1)NC(=O)[C@@H](NC(=O)CNC(=O)[C@H](CCC(=O)O)NC(=O)CCNC(=O)C(C)(C)c1cc(F)cc(C#N)c1)[C@@H](C)O)C(C)C)[C@@H](C)CC)[C@@H](C)CC)C(C)C)C(=O)N[C@@H](C)C(=O)NCC(=O)NCC(=O)N1CCC[C@H]1C(=O)N[C@@H](CO)C(=O)N[C@@H](CO)C(=O)NCC(=O)N[C@@H](C)C(=O)N1CCC[C@H]1C(=O)N1CCC[C@H]1C(=O)N1CCC[C@H]1C(=O)N[C@@H](CO)C(N)=O [Compound 166] ({Isobutyryl(2-(3-CN-5-F-Ph))-βAla}-EGTFVSDYSI[Aib]LDKIAQK([AEEA-AEEA-γGlu-C20 diacid])AFVQWLIAGGPSSGAPPPS-NH2)
- EC50 (GLP-1 receptor [1]): > 1 µM
- EC50 (GIP receptor [2]): < 1 µM
- EC50 (GLP-1 receptor [3]): 0.01 to 0.1 µM
- Emax (GLP-1 receptor [3]): 77%
- EC50 (GIP receptor [4]): 0.001 to 0.01 µM
- Emax (GIP receptor [4]): 108%

SMILES: CC[C@H](C)[C@H](NC(=O)[C@H](CC(C)C)NC(=O)[C@H](Cc1c[nH]c2ccccc12)NC(=O)[C@H](CCC(N)=O)NC(=O)[C@@H](NC(=O)[C@H](Cc1ccccc1)NC(=O)[C@H](C)NC(=O)[C@H](CCCCNC(=O)COCCOCCNC(=O)COCCOCCNC(=O)CC[C@H](NC(=O)CCCCCCCCCCCCCCCCCCC(=O)O)C(=O)O)NC(=O)[C@H](CCC(N)=O)NC(=O)[C@H](C)NC(=O)[C@@H](NC(=O)[C@H](CCCCN)NC(=O)[C@H](CC(=O)O)NC(=O)[C@H](CC(C)C)NC(=O)C(C)(C)NC(=O)[C@@H](NC(=O)[C@H](CO)NC(=O)[C@H](Cc1ccc(O)cc1)NC(=O)[C@H](CC(=O)O)NC(=O)[C@H](CO)NC(=O)[C@@H](NC(=O)[C@H](Cc1ccccc1)NC(=O)[C@@H](NC(=O)CNC(=O)[C@H](CCC(=O)O)NC(=O)CCNC(=O)C1(c2cc(F)cc(C#N)c2)CCCC1)[C@@H](C)O)[C@@H](C)O)[C@@H](C)CC)[C@@H](C)CC)C(C)C)C(=O)N[C@@H](C)C(=O)NCC(=O)NCC(=O)N1CCC[C@H]1C(=O)N[C@@H](CO)C(=O)N[C@@H](CO)C(=O)NCC(=O)N[C@@H](C)C(=O)N1CCC[C@H]1C(=O)N1CCC[C@H]1C(=O)N1CCC[C@H]1C(=O)N[C@@H](CO)C(N)=O [Compound 164] ({X35-βAla}-EGTFTSDYSI[Aib]LDKIAQK([AEEA-AEEA-γGlu-C20 diacid])AFVQWLIAGGPSSGAPPPS-NH2)
- EC50 (GLP-1 receptor [1]): > 1 µM
- EC50 (GIP receptor [2]): > 1 µM
- EC50 (GLP-1 receptor [3]): 0.001 to 0.01 µM
- Emax (GLP-1 receptor [3]): 112%
- EC50 (GIP receptor [4]): 0.001 to 0.01 µM
- Emax (GIP receptor [4]): 106%

SMILES: CC[C@H](C)[C@H](NC(=O)[C@H](CC(C)C)NC(=O)[C@H](Cc1c[nH]c2ccccc12)NC(=O)[C@H](CCC(N)=O)NC(=O)[C@@H](NC(=O)[C@H](Cc1ccccc1)NC(=O)[C@H](C)NC(=O)[C@H](CCCCNC(=O)COCCOCCNC(=O)COCCOCCNC(=O)CC[C@H](NC(=O)CCCCCCCCCCCCCCCCCCC(=O)O)C(=O)O)NC(=O)[C@H](CCC(N)=O)NC(=O)[C@H](C)NC(=O)[C@@H](NC(=O)[C@H](CCCCN)NC(=O)[C@H](CC(=O)O)NC(=O)[C@H](CC(C)C)NC(=O)C(C)(C)NC(=O)[C@@H](NC(=O)[C@H](CO)NC(=O)[C@H](Cc1ccc(O)cc1)NC(=O)[C@H](CC(=O)O)NC(=O)[C@H](CO)NC(=O)[C@@H](NC(=O)[C@H](Cc1ccccc1)NC(=O)[C@@H](NC(=O)CNC(=O)[C@H](CCC(=O)O)NC(=O)CCNC(=O)C1(c2ccc(OC)cc2)CCCC1)[C@@H](C)O)[C@@H](C)O)[C@@H](C)CC)[C@@H](C)CC)C(C)C)C(=O)N[C@@H](C)C(=O)NCC(=O)NCC(=O)N1CCC[C@H]1C(=O)N[C@@H](CO)C(=O)N[C@@H](CO)C(=O)NCC(=O)N[C@@H](C)C(=O)N1CCC[C@H]1C(=O)N1CCC[C@H]1C(=O)N1CCC[C@H]1C(=O)N[C@@H](CO)C(N)=O [Compound 208] ({X59-βAla}-EGTFTSDYSI[Aib]LDKIAQK([AEEA-AEEA-γGlu-C20 diacid])AFVQWLIAGGPSSGAPPPS-NH2)
- EC50 (GLP-1 receptor [1]): > 1 µM
- EC50 (GIP receptor [2]): < 1 µM
- EC50 (GLP-1 receptor [3]): 0.001 to 0.01 µM
- Emax (GLP-1 receptor [3]): 111%
- EC50 (GIP receptor [4]): 0.001 to 0.01 µM
- Emax (GIP receptor [4]): 109%

SMILES: CC[C@H](C)[C@H](NC(=O)[C@H](CC(C)C)NC(=O)[C@H](Cc1c[nH]c2ccccc12)NC(=O)[C@H](CCC(N)=O)NC(=O)[C@@H](NC(=O)[C@H](Cc1ccccc1)NC(=O)[C@H](C)NC(=O)[C@H](CCCCNC(=O)COCCOCCNC(=O)COCCOCCNC(=O)CC[C@H](NC(=O)CCCCCCCCCCCCCCCCCCC(=O)O)C(=O)O)NC(=O)[C@H](CCC(N)=O)NC(=O)[C@H](C)NC(=O)[C@@H](NC(=O)[C@H](CCCCN)NC(=O)[C@H](CC(=O)O)NC(=O)[C@H](CC(C)C)NC(=O)C(C)(C)NC(=O)[C@@H](NC(=O)[C@H](CO)NC(=O)[C@H](Cc1ccc(O)cc1)NC(=O)[C@H](CC(=O)O)NC(=O)[C@H](CO)NC(=O)[C@@H](NC(=O)[C@H](Cc1ccccc1)NC(=O)[C@@H](NC(=O)CNC(=O)[C@H](CCC(=O)O)NC(=O)CCNC(=O)C(C)(C)c1cc(F)cc(C(=O)O)c1)[C@@H](C)O)[C@@H](C)O)[C@@H](C)CC)[C@@H](C)CC)C(C)C)C(=O)N[C@@H](C)C(=O)NCC(=O)NCC(=O)N1CCC[C@H]1C(=O)N[C@@H](CO)C(=O)N[C@@H](CO)C(=O)NCC(=O)N[C@@H](C)C(=O)N1CCC[C@H]1C(=O)N1CCC[C@H]1C(=O)N1CCC[C@H]1C(=O)N[C@@H](CO)C(N)=O [Compound 139] ({X9-βAla}-EGTFTSDYSI[Aib]LDKIAQK([AEEA-AEEA-γGlu-C20 diacid])AFVQWLIAGGPSSGAPPPS-NH2)
- EC50 (GLP-1 receptor [1]): > 1 µM
- EC50 (GIP receptor [2]): > 1 µM
- EC50 (GLP-1 receptor [3]): 0.001 to 0.01 µM
- Emax (GLP-1 receptor [3]): 102%
- EC50 (GIP receptor [4]): 0.01 to 0.1 µM
- Emax (GIP receptor [4]): 109%

SMILES: CC[C@H](C)[C@H](NC(=O)[C@H](CC(C)C)NC(=O)[C@H](Cc1c[nH]c2ccccc12)NC(=O)[C@H](CCC(N)=O)NC(=O)[C@@H](NC(=O)[C@H](Cc1ccccc1)NC(=O)[C@H](C)NC(=O)[C@H](CCCCNC(=O)COCCOCCNC(=O)COCCOCCNC(=O)CC[C@H](NC(=O)CCCCCCCCCCCCCCCCCCC(=O)O)C(=O)O)NC(=O)[C@H](CCC(N)=O)NC(=O)[C@H](C)NC(=O)[C@@H](NC(=O)[C@H](CCCNC(=N)N)NC(=O)[C@H](CC(=O)O)NC(=O)[C@H](CC(C)C)NC(=O)C(C)(C)NC(=O)[C@@H](NC(=O)[C@H](CO)NC(=O)[C@H](Cc1ccc(O)cc1)NC(=O)[C@H](CC(=O)O)NC(=O)[C@H](CO)NC(=O)[C@@H](NC(=O)[C@H](Cc1ccccc1)NC(=O)[C@@H](NC(=O)CNC(=O)[C@H](CCC(=O)O)NC(=O)CCNC(=O)C(C)(C)c1cc(F)cc(C#N)c1)[C@@H](C)O)[C@@H](C)O)[C@@H](C)CC)[C@@H](C)CC)C(C)C)C(=O)N[C@@H](C)C(=O)NCC(=O)NCC(=O)N1CCC[C@H]1C(=O)N[C@@H](CO)C(=O)N[C@@H](CO)C(=O)NCC(=O)N[C@@H](C)C(=O)N1CCC[C@H]1C(=O)N1CCC[C@H]1C(=O)N1CCC[C@H]1C(=O)N[C@@H](CO)C(N)=O [Compound 242] ({Isobutyryl(2-(3-CN-5-F-Ph))-βAla}-EGTFTSDYSI[Aib]LDRIAQK([AEEA-AEEA-γGlu-C20 diacid])AFVQWLIAGGPSSGAPPPS-NH2)
- EC50 (GLP-1 receptor [1]): > 1 µM
- EC50 (GLP-1 receptor [3]): 0.0001 to 0.001 µM
- Emax (GLP-1 receptor [3]): 99%
- EC50 (GIP receptor [4]): 0.01 to 0.1 µM
- Emax (GIP receptor [4]): 115%
